The supplement of paper PMC8253809

Key:
SUDIPGXIII [1] = diffuse intrinsic pontine glioma line; experiment: EC50 (inflection of fitted growth-inhibition curve) (log10 M)
How it was run: (§1)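 Patient-derived pHGG/DIPG cell lines and astrocyte controls were plated in 384-well plates coated with 1% Geltrex and dosed by pin tool with a 10-point threefold dilution series (mean top concentration 35 μM), in triplicate. Cells were exposed for 7 days (3 days for iAstro) at 37 °C and 5% CO2. CellTiter-Glo luminescence was log2-transformed, normalised per plate to % activity between negative (solvent) and positive control wells, and pooled. EC50 and maximal response (yFin) were taken from whichever three- or four-parameter log-logistic fit had the lowest AICc.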

iAstro [2] = astrocyte control; experiment: as above
How it was run: as §1

DIPGX7 [3] = H3.3 K27M diffuse intrinsic pontine glioma line; experiment: as above
How it was run: as §1

HGGX42 [4] = H3.3 G34R paediatric high-grade glioma line; experiment: as above
How it was run: as §1

SUDIPGVI [5] = diffuse intrinsic pontine glioma line; experiment: as above
How it was run: as §1

DIPGX29 [6] = H3.3 K27M diffuse intrinsic pontine glioma line; experiment: as above
How it was run: as §1

SUDIPGIV [7] = diffuse intrinsic pontine glioma line; experiment: as above
How it was run: as §1

SUDIPGXXI [8] = diffuse intrinsic pontine glioma line; experiment: as above
How it was run: as §1

HGGX6 [9] = H3.3 G34R paediatric high-grade glioma line; experiment: as above
How it was run: as §1

HGGX2 [10] = paediatric high-grade glioma line; experiment: as above
How it was run: as §1

DIPGX37 [11] = H3.3 K27M diffuse intrinsic pontine glioma line; experiment: as above
How it was run: as §1

HGGX39 [12] = paediatric high-grade glioma line; experiment: as above
How it was run: as §1

SUDIPGXVII [13] = diffuse intrinsic pontine glioma line; experiment: as above
How it was run: as §1

DIPGX9 [14] = diffuse intrinsic pontine glioma line; experiment: as above
How it was run: as §1

HABS [15] = astrocyte control; experiment: as above
How it was run: as §1

SUDIPGXIII [16] = experiment: area under dose-response curve of % growth inhibition (log2 RLU vs DMSO / staurosporine), 1e-11 to 1e-4 M (% x log10 M); higher = more growth inhibition
How it was run: (§2)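 Patient-derived pHGG/DIPG cell lines and astrocyte controls were grown on 1% Geltrex-coated 384-well plates and exposed to a 10-point threefold dilution series (mean top concentration 35 μM), in triplicate. Exposure was 7 days (iAstro 3 days) at 37 °C, 5% CO2. CellTiter-Glo luminescence was log2-transformed and normalised per plate to % activity between solvent and positive controls. Area under the curve was taken by trapezoid rule from the fitted log-logistic curve, or from a smoothing spline when the sigmoid fit failed.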

iAstro [17] = experiment: as above
How it was run: as §2

DIPGX7 [18] = experiment: as above
How it was run: as §2

HGGX42 [19] = experiment: as above
How it was run: as §2

SUDIPGVI [20] = experiment: as above
How it was run: as §2

DIPGX29 [21] = experiment: as above
How it was run: as §2

SUDIPGIV [22] = experiment: as above
How it was run: as §2

SUDIPGXXI [23] = experiment: as above
How it was run: as §2

HGGX6 [24] = experiment: as above
How it was run: as §2

SUDIPGXIX = diffuse intrinsic pontine glioma line; experiment: as above
How it was run: as §2

HGGX2 [25] = experiment: as above
How it was run: as §2

DIPGX37 [26] = experiment: as above
How it was run: as §2

HGGX39 [27] = experiment: as above
How it was run: as §2

SUDIPGXVII [28] = experiment: as above
How it was run: as §2

DIPGX9 [29] = experiment: as above
How it was run: as §2

HABS [30] = experiment: as above
How it was run: as §2

Compound | EC50 (log10 M) (SUDIPGXIII [1]) | EC50 (log10 M) (iAstro [2]) | EC50 (log10 M) (DIPGX7 [3]) | EC50 (log10 M) (HGGX42 [4]) | EC50 (log10 M) (SUDIPGVI [5]) | EC50 (log10 M) (DIPGX29 [6]) | EC50 (log10 M) (SUDIPGIV [7]) | EC50 (log10 M) (SUDIPGXXI [8]) | EC50 (log10 M) (HGGX6 [9]) | EC50 (log10 M) (HGGX2 [10]) | EC50 (log10 M) (DIPGX37 [11]) | EC50 (log10 M) (HGGX39 [12]) | EC50 (log10 M) (SUDIPGXVII [13]) | EC50 (log10 M) (DIPGX9 [14]) | EC50 (log10 M) (HABS [15]) | area under dose-response curve (SUDIPGXIII [16]) | area under dose-response curve (iAstro [17]) | area under dose-response curve (DIPGX7 [18]) | area under dose-response curve (HGGX42 [19]) | area under dose-response curve (SUDIPGVI [20]) | area under dose-response curve (DIPGX29 [21]) | area under dose-response curve (SUDIPGIV [22]) | area under dose-response curve (SUDIPGXXI [23]) | area under dose-response curve (HGGX6 [24]) | area under dose-response curve (SUDIPGXIX) | area under dose-response curve (HGGX2 [25]) | area under dose-response curve (DIPGX37 [26]) | area under dose-response curve (HGGX39 [27]) | area under dose-response curve (SUDIPGXVII [28]) | area under dose-response curve (DIPGX9 [29]) | area under dose-response curve (HABS [30])
Cc1ccc(C(=O)Nc2ccc(CN3CCN(C)CC3)c(C(F)(F)F)c2)cc1C#Cc1cnc2cccnn12 [PONATINIB] | -4.88 | -5.12 | -5.61 | -5.22 | -4.86 | -5.28 | -4.81 | -7.54 | -5.11 | -5.61 | -5.38 | -5.47 | -4.84 | -6.72 | -5.89 | 132 | 128 | 155 | 164 | 119 | 134 | 102 | 345 | 155 | 132 | 163 | 141 | 148 | 125 | 252 | 194
CC(=O)c1ccc2c(c1)c1cc(C(C)=O)ccc1n2CCNC(C)C [CBL-0137] | -5.14 | -6.54 | -5.22 | -5.67 | -5.09 | -5.42 | -5.61 | -6.51 | -5.37 | -5.6 | -5.98 | -5.42 | -5.23 | -6.06 | -6.08 | 123 | 57.3 | 137 | 154 | 109 | 135 | 156 | 277 | 122 | 223 | 134 | 199 | 148 | 129 | 218 | 155
